Measured values published in article PMC10753557, “Design and Evaluation of Synthesized Pyrrole Derivatives as Dual COX-1 and COX-2 Inhibitors Using FB-QSAR Approach” (ACS Omega, 2023).

How the values were obtained:
COX-2 = target: T1, COX-2 (Homo sapiens, UniProt P35354); test: COX-2 fluorometric inhibitor screening kit (BioVision); type: biochemical
T1 construct: purchased BioVision
T1 sequence (P35354 18-604): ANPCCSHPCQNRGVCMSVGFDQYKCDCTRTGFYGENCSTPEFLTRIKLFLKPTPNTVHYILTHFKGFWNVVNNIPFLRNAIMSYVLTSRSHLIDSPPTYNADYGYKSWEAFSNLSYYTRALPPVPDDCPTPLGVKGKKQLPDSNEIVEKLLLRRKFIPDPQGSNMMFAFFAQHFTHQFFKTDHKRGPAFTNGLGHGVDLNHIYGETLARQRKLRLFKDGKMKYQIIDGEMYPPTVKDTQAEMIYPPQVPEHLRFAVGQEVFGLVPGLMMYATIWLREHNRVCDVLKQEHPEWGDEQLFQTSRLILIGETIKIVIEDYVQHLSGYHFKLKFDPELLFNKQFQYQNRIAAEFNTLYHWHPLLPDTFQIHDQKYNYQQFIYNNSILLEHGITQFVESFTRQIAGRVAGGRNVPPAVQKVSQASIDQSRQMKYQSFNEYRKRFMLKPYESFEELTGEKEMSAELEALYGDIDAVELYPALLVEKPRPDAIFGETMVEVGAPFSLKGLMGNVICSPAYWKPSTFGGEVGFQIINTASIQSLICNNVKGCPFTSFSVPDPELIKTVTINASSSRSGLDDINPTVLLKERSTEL
Description: (§1) To conduct the inhibition assay, the kit components were prepared as follows: The COX-1/COX-2 enzyme solutions were created by reconstituting the lyophilized powder with 110 μL of ddH2O. A diluted COX cofactor was formed by combining a COX assay buffer (398 μL) and a COX cofactor (2 μL). The arachidonic acid/NaOH solution was diluted with 5 μL of arachidonic acid, 5 μL of NaOH, and 90 μL of ddH2O. These solutions were combined to generate the reaction mixture (80 μL) for each well, consisting of the COX assay buffer (76 μL), the COX probe (1 μL), the diluted COX cofactor (2 μL), and the COX-1/COX-2 enzyme solution (1 μL). Test compounds (10 μL) were added, followed by incubation for 5–10 min at 25 °C. To […] the reaction, 10 μL of diluted arachidonic acid/NaOH solution was added. […] The assay was performed in quadruplicate with a blank and control, testing all inhibitor concentrations. The mean ± standard deviation (SD) of the percentage inhibition results were calculated, and IC50 values were determined using GraphPad PRISM software (version 5.0) by plotting the percentage inhibition against the log concentration. Additionally, the selectivity index (SI) was calculated by dividing IC50(COX-1) by IC50(COX-2).

COX-1 = target: T2, COX-1 (Ovis aries, UniProt P05979); test: COX-1 fluorometric inhibitor screening kit (BioVision); type: biochemical
T2 construct: purchased
T2 sequence (P05979 25-600): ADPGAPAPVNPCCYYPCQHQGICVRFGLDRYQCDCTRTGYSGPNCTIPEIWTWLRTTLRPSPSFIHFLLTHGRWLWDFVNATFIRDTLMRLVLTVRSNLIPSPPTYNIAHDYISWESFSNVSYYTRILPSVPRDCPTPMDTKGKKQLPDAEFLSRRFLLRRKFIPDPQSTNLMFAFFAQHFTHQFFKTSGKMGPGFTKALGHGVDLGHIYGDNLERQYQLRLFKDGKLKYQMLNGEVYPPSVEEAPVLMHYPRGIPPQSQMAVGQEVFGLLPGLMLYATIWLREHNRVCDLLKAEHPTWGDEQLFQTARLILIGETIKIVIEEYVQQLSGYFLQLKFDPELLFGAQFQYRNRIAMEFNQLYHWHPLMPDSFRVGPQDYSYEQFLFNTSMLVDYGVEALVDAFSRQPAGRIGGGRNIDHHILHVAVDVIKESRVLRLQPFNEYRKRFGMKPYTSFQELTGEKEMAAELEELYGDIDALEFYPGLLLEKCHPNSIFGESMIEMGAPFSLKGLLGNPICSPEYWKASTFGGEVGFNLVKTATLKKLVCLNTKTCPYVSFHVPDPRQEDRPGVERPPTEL
Description: as §1

[1] = 1 μM compound, mean ± SD, quadruplicate
[2] = 10 μM compound, mean ± SD, quadruplicate

Row | inhibition at 1 µM (COX-2; read-out: COX-2% Inhibition 1 μM) [%] | inhibition at 10 µM (COX-2; read-out: COX-2% Inhibition 10 μM) [%] | COX-1% Inhibition 1 μM (COX-1; [1]) [%] | COX-1% Inhibition 10 μM (COX-1; [2]) [%] | experimental activity on COX-1 (pIC50) (COX-1; BioVision's kit protocol) | IC50 (COX-1; fluorometric kit) [nM] | COX-2% Inhibition 1 μM (COX-2; [1]) [%] | COX-2% Inhibition 10 μM (COX-2; [2]) [%] | experimental activity on COX-2 (pIC50) (COX-2; BioVision's kit protocol) | COX subtype selectivity (COX-2; COX-1 vs COX-2, classification in conclusions) | IC50 (COX-2; fluorometric kit) [nM] | SMILES
1 | 89.6 ± 1.05 | 97.8 ± 1.21 |  |  |  |  |  |  |  |  |  | CS(=O)(=O)Nc1ccc([N+](=O)[O-])cc1Oc1ccccc1 [nimesulide, reference compound]
2 |  |  | 84.517 ± 2.036 | 92.366 ± 2.731 | 6.93 | 117 ± 5 | 83.033 ± 1.878 | 90.967 ± 2.022 | 6.7258 | nonselective inhibitors | 188 ± 8 | CCOC(=O)c1cc(-c2c(OC)cccc2OC)n(CC(=O)O)c1C [Compound 4g]
